These compounds were tested against T1, human TLR7 (Homo sapiens, UniProt Q9NYK1) (assay: HEK293 NFKB reporter assay, human TLR7). Conditions: HEK293 NFKB reporter cells expressing human TLR7; read-out: HEK293 hTLR7 EC50.
T1 construct: host or cells: HEK293 reporter cells
T1 sequence (Q9NYK1 27-1049): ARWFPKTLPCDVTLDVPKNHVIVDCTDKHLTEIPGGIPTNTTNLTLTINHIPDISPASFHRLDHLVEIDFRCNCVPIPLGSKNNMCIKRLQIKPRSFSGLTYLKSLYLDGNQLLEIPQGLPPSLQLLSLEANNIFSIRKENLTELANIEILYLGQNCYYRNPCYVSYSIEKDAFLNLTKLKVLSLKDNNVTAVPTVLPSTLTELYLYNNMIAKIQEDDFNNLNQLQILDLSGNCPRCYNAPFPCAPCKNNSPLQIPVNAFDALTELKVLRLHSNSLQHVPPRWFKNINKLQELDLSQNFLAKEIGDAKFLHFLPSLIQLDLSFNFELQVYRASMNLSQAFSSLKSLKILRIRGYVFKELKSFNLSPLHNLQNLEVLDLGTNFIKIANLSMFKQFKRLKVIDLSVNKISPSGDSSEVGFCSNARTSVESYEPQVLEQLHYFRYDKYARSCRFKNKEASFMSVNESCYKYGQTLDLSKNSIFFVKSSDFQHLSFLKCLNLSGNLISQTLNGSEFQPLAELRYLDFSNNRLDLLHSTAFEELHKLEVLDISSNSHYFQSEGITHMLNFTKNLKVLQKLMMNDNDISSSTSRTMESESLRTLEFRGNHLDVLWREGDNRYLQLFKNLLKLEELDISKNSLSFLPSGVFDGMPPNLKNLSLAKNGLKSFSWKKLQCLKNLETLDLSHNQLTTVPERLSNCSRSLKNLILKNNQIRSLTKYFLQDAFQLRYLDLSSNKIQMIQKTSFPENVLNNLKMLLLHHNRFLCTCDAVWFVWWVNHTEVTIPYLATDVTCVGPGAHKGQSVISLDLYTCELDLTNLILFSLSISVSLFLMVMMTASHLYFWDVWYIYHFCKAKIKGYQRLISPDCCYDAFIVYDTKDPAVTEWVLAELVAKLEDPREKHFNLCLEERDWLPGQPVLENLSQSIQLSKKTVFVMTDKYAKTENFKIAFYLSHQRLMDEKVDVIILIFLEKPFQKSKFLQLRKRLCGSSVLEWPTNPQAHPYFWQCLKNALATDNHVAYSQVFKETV
Assay type: cell-based
Description: (§1) Each compound was synthesized, purified, and characterized by mass spectrometry and shown to have the mass indicated. Additional experimental procedures are found in the Examples. Activity against HEK293 NFKB reporter cells expressing human TLR7 or human TLR8 was measured according to Example 202.
(§2) HEK293 reporter cells expressing human TLR7 or human TLR8 were purchased from Invivogen and vendor protocols were followed for cellular propagation and experimentation. Briefly, cells were grown to 80-85% confluence at 5% CO2 in DMEM supplemented with 10% FBS, Zeocin, and Blasticidin. Cells were then seeded in 96-well flat plates at 4×10^4 cells/well with substrate containing HEK detection medium and immunostimulatory molecules. Activity was measured using a plate reader at 620-655 nm wavelength.

`CCCN(Cc1ccc(CNC(=O)CCOC)cc1)C(=O)C1=Cc2sccc2N=C(N)C1` [TAZ-46] and `CCCN(Cc1ccc(CN2CCNCC2)cc1)C(=O)C1=Cc2sccc2N=C(N)C1` [TAZ-37] cannot be ordered by EC50: > 9 µM for the first, > 9 µM for the second.

First: CCCN(C(=O)C1=Cc2sc(CCCCCNC(=O)OC(C)(C)C)cc2N=C(N)C1)C1CC1 [TAZ-123]
Second: CCCN(CC1CC1)C(=O)C1=Cc2sc(CCCCCNC(=O)OC(C)(C)C)cc2N=C(N)C1 [TAZ-125]
The EC50 of the first is 1.7-fold higher: 4.63 µM for the first, 2.71 µM for the second. The second is the more potent here.

`CCCN(CCCNC(=O)OC1CCC1)C(=O)C1=Cc2sc(CC3CNC3)cc2N=C(N)C1` [TAZ-181] and `CCCN(CCCNC(=O)OC1CCC1)C(=O)C1=Cc2sc(CCC3CNC3)cc2N=C(N)C1` [TAZ-197] are within 1.5-fold of each other in EC50: 2.03 µM for the first, 1.81 µM for the second.

`CCCN(CCCNC(=O)OC1CCC1)C(=O)C1=Cc2sc(CCC3CCN(C(=O)OC(C)(C)C)CC3)cc2N=C(N)C1` [TAZ-167] and `CCCN(CCCNC(=O)OC1CCC1)C(=O)C1=Cc2sc(CC3CCNCC3)cc2N=C(N)C1` [TAZ-185, cyclobutyl N-[3-[[5-amino-2-(4-piperidylmethyl)-6H-thieno[3,2-b]azepine-7-carbonyl]-propyl-amino]propyl]carbamate] are within 1.5-fold of each other in EC50: 3.13 µM for the first, 3.7 µM for the second.

Going from `CCCN(CCCNC(=O)C(C)(C)C)C(=O)C1=Cc2sc(CCCCCN)cc2N=C(N)C1` [TAZ-142] to `CCCN(CCC)C(=O)C1=Cc2sc(COCCCN)cc2N=C(N)C1` [TAZ-73], the EC50 rises from 0.827 µM to > 9 µM.

`CCCN(OCC)C(=O)C1=Cc2sc(C#CC3CCN(C(=O)OC(C)(C)C)CC3)cc2N=C(N)C1` [TAZ-173] and `CCCN(CC#CCNC(=O)OC(C)(C)C)C(=O)C1=Cc2sc(Br)cc2N=C(N)C1` [TAZ-10, tert-butyl N-[4-[(5-amino-2-bromo-6H-thieno[3,2-b]azepine-7-carbonyl)-propyl-amino]but-2-ynyl]carbamate] are within 1.5-fold of each other in EC50: 7.69 µM for the first, 7.77 µM for the second.

`CCCN(CCCNC(=O)CC(C)(C)C)C(=O)C1=Cc2sc(CN3CCNCC3)cc2N=C(N)C1` [TAZ-139] and `CCCN(CCCNC(=O)OC1CCC1)C(=O)C1=Cc2sc(CN3CCNCC3)cc2N=C(N)C1` [TAZ-169] are within 1.5-fold of each other in EC50: 4.21 µM for the first, 3.17 µM for the second.

First: CCCN(CCCNC(=O)OC1CCC1)C(=O)C1=Cc2sc(CN3CCN(c4ccc(C(=O)OC)cc4)CC3)cc2N=C(N)C1 [TAZ-180]
Second: CN(C)Cc1ccc(CN(CCC(F)(F)F)C(=O)C2=Cc3sc(CCCCCNC(=O)OC(C)(C)C)cc3N=C(N)C2)cc1 [TAZ-116]
The EC50 of the first is 2.3-fold higher: 3.65 µM for the first, 1.62 µM for the second. The second is the more potent here.

Going from `CCCN(C[C@H]1CC[C@@H](CNC(=O)OC(C)(C)C)CC1)C(=O)C1=Cc2sccc2N=C(N)C1` [TAZ-119] to `CCCN(Cc1ccc(CN(C)C)cc1C(F)(F)F)C(=O)C1=Cc2sc(CCCCCNC(=O)OC(C)(C)C)cc2N=C(N)C1` [TAZ-143], the EC50 falls from 2.88 µM to 1.88 µM (1.5-fold). The second is the more potent here.

Each compound was assayed against T2, human TLR8 (Homo sapiens, UniProt Q9NR97) (assay: HEK293 NFKB reporter assay, human TLR8). Conditions: HEK293 NFKB reporter cells expressing human TLR8; read-out: HEK293 hTLR8 EC50.
T2 construct: host or cells: HEK293 reporter cells
T2 sequence (Q9NR97 27-1041): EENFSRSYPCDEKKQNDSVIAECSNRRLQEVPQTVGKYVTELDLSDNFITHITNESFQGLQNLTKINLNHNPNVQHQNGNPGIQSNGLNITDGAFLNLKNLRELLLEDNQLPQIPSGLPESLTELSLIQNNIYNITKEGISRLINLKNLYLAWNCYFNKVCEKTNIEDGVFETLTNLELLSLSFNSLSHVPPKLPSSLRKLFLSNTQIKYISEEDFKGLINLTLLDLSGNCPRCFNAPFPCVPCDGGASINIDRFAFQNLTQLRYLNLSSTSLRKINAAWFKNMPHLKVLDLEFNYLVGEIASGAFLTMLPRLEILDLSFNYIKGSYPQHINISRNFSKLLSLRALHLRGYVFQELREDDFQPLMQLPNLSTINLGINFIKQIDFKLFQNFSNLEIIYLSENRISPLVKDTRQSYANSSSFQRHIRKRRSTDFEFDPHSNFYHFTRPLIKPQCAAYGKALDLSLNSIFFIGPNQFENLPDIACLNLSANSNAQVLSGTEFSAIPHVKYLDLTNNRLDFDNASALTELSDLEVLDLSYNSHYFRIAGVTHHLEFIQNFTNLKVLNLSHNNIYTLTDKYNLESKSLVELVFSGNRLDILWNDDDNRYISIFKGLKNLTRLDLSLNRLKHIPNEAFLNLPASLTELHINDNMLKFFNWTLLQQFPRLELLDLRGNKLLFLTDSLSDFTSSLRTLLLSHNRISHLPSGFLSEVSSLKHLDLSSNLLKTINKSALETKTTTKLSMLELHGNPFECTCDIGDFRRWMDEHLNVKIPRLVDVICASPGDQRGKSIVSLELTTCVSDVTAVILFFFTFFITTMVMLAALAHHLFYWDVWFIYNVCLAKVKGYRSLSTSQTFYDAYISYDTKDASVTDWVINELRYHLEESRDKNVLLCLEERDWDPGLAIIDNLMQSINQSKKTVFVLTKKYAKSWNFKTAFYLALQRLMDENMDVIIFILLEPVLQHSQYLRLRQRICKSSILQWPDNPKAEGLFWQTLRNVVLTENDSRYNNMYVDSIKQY
Assay type: cell-based
Description: as §1, §2

Going from `CCCN(Cc1ccc(CNC(=O)CCOC)cc1)C(=O)C1=Cc2sccc2N=C(N)C1` [TAZ-46] to `CCCN(Cc1ccc(CN)cc1)C(=O)C1=Cc2sccc2N=C(N)C1` [TAZ-30, 5-amino-N-(4-(aminomethyl)benzyl)-N-propyl-6H-thieno[3,2-b]azepine-7-carboxamide], the EC50 falls from 1.58 µM to 0.641 µM (2.5-fold).

Going from `CCCN(CCC)C(=O)C1=Cc2sc(CCCCCN)cc2N=C(N)C1` [TAZ-14, 5-amino-2-(5-aminopentyl)-N,N-dipropyl-6H-thieno [3,2-b]azepine-7-carboxamide] to `CCCN(CCC)C(=O)C1=Cc2sc(COCCN)cc2N=C(N)C1` [TAZ-81], the EC50 rises from 4.94 µM to 7.95 µM (1.6-fold).

Compared with `CCCN(Cc1ccc(CNC)cc1)C(=O)C1=Cc2sc(CCCCCN(C)C)cc2N=C(N)C1` [TAZ-65, 5-amino-2-[5-(dimethylamino)pentyl]-N-[[4-(methylaminomethyl)phenyl]methyl]-N-propyl-6H-thieno[3,2-b]azepine-7-carboxamide], `CCCN(CCC)C(=O)C1=Cc2sc(CNC(=O)CN)cc2N=C(N)C1` [TAZ-92] is 9.1-fold higher in EC50: 0.311 µM for the first, 2.83 µM for the second. The first is the more potent here.

First: CCCN(OCc1ccc(OC)cc1)C(=O)C1=Cc2sccc2N=C(N)C1 [TAZ-101]
Second: CCCN(CCC)C(=O)C1=Cc2sccc2N=C(N)C1 [TAZ-2, 5-amino-N,N-dipropyl-6H-thieno[3,2-b]azepine-7-carboxamide]
The EC50 of the first is 12-fold lower: 0.203 µM for the first, 2.39 µM for the second. The first is the more potent here.

Compared with `CCCN(Cc1ncco1)C(=O)C1=Cc2sc(CC3CNC3)cc2N=C(N)C1` [TAZ-256], `CCCN(OCC)C(=O)C1=Cc2sc(CN3C[C@H]4CNC[C@H]4C3)cc2N=C(N)C1` [TAZ-247] is 8.2-fold lower in EC50: 3.41 µM for the first, 0.418 µM for the second.

Compared with `CCCN(OCC)C(=O)C1=Cc2sc(C#CC3CN(C(=O)OC(C)(C)C)C3)cc2N=C(N)C1` [TAZ-187], `CCCN(OCC)C(=O)C1=Cc2sc(C#CC3(O)CN(C(=O)OC(C)(C)C)C3)cc2N=C(N)C1` [TAZ-188] is 8.1-fold higher in EC50: 0.964 µM for the first, 7.8 µM for the second.

First: CCCN(C(=O)C1=Cc2sccc2N=C(N)C1)N(C)CC [TAZ-100]
Second: CCCN(CC#CCN)C(=O)C1=Cc2sccc2N=C(N)C1 [TAZ-17, 5-amino-N-(4-aminobut-2-ynyl)-N-propyl-6H-thieno[3,2-b]azepine-7-carboxamide]
The EC50 of the first is higher: > 9 µM for the first, 4.1 µM for the second.

Going from `CCCN(OCC)C(=O)C1=Cc2sc(CN3CC(CN)C3)cc2N=C(N)C1` [TAZ-211] to `CCCN(OCC)C(=O)C1=Cc2sc(CN3CCC(N)CC3)cc2N=C(N)C1` [TAZ-243], the EC50 falls from 4.32 µM to 0.164 µM (26-fold). The second is the more potent here.

`CCCN(CCC)C(=O)C1=Cc2scc(C)c2N=C(N)C1` [TAZ-168] and `CCCN(C[C@H]1C[C@H](CN)C1)C(=O)C1=Cc2sccc2N=C(N)C1` [TAZ-69] are within 1.5-fold of each other in EC50: 3.87 µM for the first, 4.3 µM for the second.

First: CCCN(C[C@H]1CC[C@H](CNC(=O)OC(C)(C)C)CC1)C(=O)C1=Cc2sccc2N=C(N)C1 [TAZ-98]
Second: CCCN(C[C@H]1CC[C@@H](CN)CC1)C(=O)C1=Cc2sccc2N=C(N)C1 [TAZ-118]
The EC50 of the first is 7-fold lower: 0.631 µM for the first, 4.44 µM for the second.

Going from `CCCN(OCC)C(=O)C1=Cc2sc(CN3C[C@@H]4CN(C(=O)OC(C)(C)C)C[C@@H]4C3)cc2N=C(N)C1` [TAZ-242] to `CCCN(OCC)C(=O)C1=Cc2sc(CN3C[C@H]4CN(C(=O)OC(C)(C)C)C[C@@H]4C3)cc2N=C(N)C1` [TAZ-248], the EC50 falls from 3.78 µM to 1.11 µM (3.4-fold). The second is the more potent here.

Going from `CCCN(OCC)C(=O)C1=Cc2sc(CN3CC4(CCN4Cc4ccccc4)C3)cc2N=C(N)C1` [TAZ-246] to `CCCN(OCC)C(=O)C1=Cc2sc(CN3Cc4ccc(NC(=O)CCN)cc4C3)cc2N=C(N)C1` [TAZ-201], the EC50 rises from 1.11 µM to 2.96 µM (2.7-fold). The first is the more potent here.

Going from `CCCN(CC#CCNC(=O)OC(C)(C)C)C(=O)C1=Cc2sccc2N=C(N)C1` [TAZ-16, tert-butyl N-[4-[(5-amino-6H-thieno[3,2-b]azepine-7-carbonyl)-propyl-amino]but-2-ynyl]carbamate] to `CCCN(C[C@H]1CC[C@H](CN)CC1)C(=O)C1=Cc2sccc2N=C(N)C1` [TAZ-97], the EC50 rises from 6.11 µM to > 9 µM. The first is the more potent here.

For `CCCN(OCC)C(=O)C1=Cc2sc(CC3CCN(C(=O)OC(C)(C)C)CC3)cc2N=C(N)C1` [TAZ-179], the EC50 was 2.54 µM.

From US11654199B2 (BOLT BIOTHERAPEUTICS, INC., priority 2019, dated 2023)
